Experimental data from patent US20220080056A1, “DENDRIMER COMPOSITIONS AND USE IN TREATMENT OF NECROTIZING ENTEROCOLITIS AND OTHER GASTROINTESTINAL DISORDERS” (The Johns Hopkins University, priority 2015, published 2022).

Legend:
[1] = test system: TLR4; settings: enterocytes and macrophages in vitro; cited from earlier work
[2] = test system: systemic inflammation; settings: mouse models of endotoxemia and necrotizing enterocolitis; cited from earlier work
[3] = biological target: T1, TLR4 co-receptor MD-2 (Homo sapiens, UniProt Q9Y6Y9); settings: cited from earlier work
T1 sequence (Q9Y6Y9 19-160): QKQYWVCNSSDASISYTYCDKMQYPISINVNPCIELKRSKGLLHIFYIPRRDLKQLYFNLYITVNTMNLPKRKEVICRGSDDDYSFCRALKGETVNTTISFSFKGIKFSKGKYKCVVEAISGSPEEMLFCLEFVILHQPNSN

[4] = test system: LPS signaling; settings: human ileum resected from infants with NEC; cited from earlier work
[5] = test system: LPS-induced brain injury; assay: LPS-induced brain injury in a neonatal rabbit model of cerebral palsy; assay type: in vivo
Procedure: The therapeutic efficacy of G4-PAMAM-S--S-NAC dendrimer conjugate was evaluated after two days of animal treatment with lipopolysaccharide (LPS) to induce white matter injury and hypomyelination in the developing rabbit brain (an animal model of Cerebral Palsy). […] This supports a conclusion that the G4-PAMAM-S--S-NAC traversed across the BBB. The targeted delivery of NAC from dendrimer complex to actived microglial cells improved the motor deficits and attenuated recovery from the LPS-induced brain injury in a neonatal rabbit model of cerebral palsy.
(§1) Treatment with G4-PAMAM-S--S-NAC dendrimer complexes reduced white matter injury and microglia activation. […] This activity of the dendrimer-NAC conjugates may be attributed to its ability to interfere with the early inflammatory responses by blocking or modifying the signal transduction factor NF-.kappa.B and nitrotyrosine, thereby modulating cellular activation. 6 and 8 arm PEG-NAC conjugates released 74% of NAC in the intracellular GSH concentration (2 and 10 mM), within 2 hours. At a concentration range of between 0.008-0.8 mM, the conjugates were nontoxic to the microglial cells. […] At the highest concentration (5 mM), the free drug reduced the H2O2 levels and nitrite levels by 30-40%, whereas the conjugates reduced the H2O2 and nitrite levels by more than 70%. […] PEGylated NAC is a dendrimer complex with utility for the pharmaceutical industry, as PEGs are approved for human use and this device addresses limitations of NAC and provides greater efficacy.

[6] = test system: microglial cells; assay: GSH depletion, ROS, H2O2 and NO/nitrite production; assay type: cell-based; settings: highest concentration (5 mM)
Procedure: as §1

[7] = free drug; cited from earlier work
[8] = test system: TLR4-mediated inflammatory signaling; settings: SAR study of C34 analogs; cited from earlier work
[9] = compared to kits treated with saline

CC(=O)N[C@H]1[C@@H](OC(C)C)O[C@H](COC(C)=O)[C@@H](OC(C)=O)[C@@H]1OC(C)=O [C34]
TLR4 inhibition [1]: inhibits | systemic inflammation [2]: reduces | docking fit to hydrophobic internal pocket of MD-2 [3]: tight fit | LPS signaling ex-vivo [4]: inhibited

CC(=O)N[C@@H](CS)C(=O)O [NAC, N-acetyl cysteine]
dose eliciting identical responses ([5]; LPS-induced brain injury): 100 mg/kg | fetal inflammation response [5, 9]: decrease | motor deficits [5, 9]: improvement | reduction of H2O2 levels [6]: 30-40% | reduction of nitrite levels [6]: 30-40% | bioavailability [7]: low | plasma protein binding [7]: very high

CC(=O)N[C@H]1[C@@H](OC(C)C)O[C@H](CO)[C@H](O)[C@@H]1O [compound 17, isopropyl 2-acetamido-α-galactoside]
efficacy relative to C34 series [8]: more efficacious
